These results are taken from ChEMBL document CHEMBL1201862, “PubChem BioAssay data set” (2004).

Test systems include BT-549; SN12C; DU-145; OVCAR-4; PC-3; NCI/ADR-RES; RXF 393; MCF7; SK-OV-3; MDA-N; UACC-62; OVCAR-8; CCRF-CEM; SK-MEL-5; NCI-H226; T47D; SF-539; CAKI-1; SNB-19; TK-10.
Assay in all cases: NCI-60 cell line screen, 48 h

Structures are written as SMILES.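 A five-concentration, 48-hour dose response in 96-well plates underlies each endpoint, interpolated linearly between surrounding concentrations. At the GI50, growth is halved.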 Active and inactive are the calls of the source. Rule as the data show it: active = GI50 up to about 1.1 µM and inactive = higher.

With `COc1ccc(/C=C2\C[C@H]3[C@@H]4CCC5=CC(=O)CC[C@]5(C)[C@H]4CC[C@]3(C)C2=O)cc1OC`, the GI50 was 6.34 µM (inactive) with BT-549; 14.4 µM (inactive) in the experiment with SN12C; 41.2 µM (inactive) with DU-145; 13.2 µM (inactive) in the experiment with OVCAR-4; 5.51 µM (inactive) in the experiment on PC-3; 6.27 µM (inactive) in the experiment on NCI/ADR-RES. In addition, the GI50 is 18 µM (inactive) in the experiment on RXF 393; 4.67 µM (inactive) in the experiment with MCF7; 0.0627 µM (active) in the experiment with SK-OV-3; 5.94 µM (inactive) with MDA-N; 6.24 µM (inactive) with UACC-62; 2.6 µM (inactive) with OVCAR-8. Also, the GI50 in the experiment on CCRF-CEM is 2.19 µM (inactive); with SK-MEL-5 it was 2.46 µM (inactive); with NCI-H226 it was 11.1 µM (inactive); in the experiment on T47D it was 3.56 µM (inactive); in the experiment with SF-539, 40 µM (inactive); in the experiment on CAKI-1, 6.97 µM (inactive). In addition, in the experiment on SNB-19, the GI50 was 44.6 µM (inactive).

With `O=C1C[C@H](c2ccccc2)O[C@@H](c2ccccc2)C1`, the GI50 in the experiment with BT-549, in the experiment with SN12C, in the experiment with DU-145, in the experiment on OVCAR-4, in the experiment on PC-3 and with NCI/ADR-RES was > 100 µM (inactive) throughout. For the same compound, the GI50 in the experiment on RXF 393 is > 100 µM (inactive); with MCF7, 74.3 µM (inactive); in the experiment with SK-OV-3, > 100 µM (inactive); in the experiment on MDA-N, > 100 µM (inactive); with UACC-62, > 100 µM (inactive); with OVCAR-8 it was > 100 µM (inactive). Moreover, the GI50 with CCRF-CEM, with SK-MEL-5, with NCI-H226, in the experiment with T47D, in the experiment on SF-539 and with CAKI-1 was > 100 µM (inactive) throughout. For the same compound, the GI50 in the experiment on SNB-19 was > 100 µM (inactive).

Turning to `Cc1c(N2C(=O)C(Cl)C2c2ccc(Cl)cc2)c(=O)n(-c2ccccc2)n1C` (stereo unspecified), the GI50 in the experiment on BT-549, with SN12C, in the experiment on DU-145, in the experiment with OVCAR-4, in the experiment with PC-3 and in the experiment with NCI/ADR-RES was > 100 µM (inactive) throughout. Also, the GI50 with RXF 393 is > 100 µM (inactive); in the experiment on MCF7, 41.6 µM (inactive); with TK-10 it was > 100 µM (inactive); in the experiment on SK-OV-3, > 100 µM (inactive); in the experiment with MDA-N, 30 µM (inactive); in the experiment on UACC-62, 75.2 µM (inactive). The GI50 in the experiment on OVCAR-8 was > 100 µM (inactive); with CCRF-CEM, 23.1 µM (inactive); in the experiment with SK-MEL-5, > 100 µM (inactive); in the experiment on NCI-H226, > 100 µM (inactive); in the experiment on T47D it was 88.3 µM (inactive); in the experiment on SF-539, 36.1 µM (inactive). Moreover, the GI50 with CAKI-1 is > 100 µM (inactive).

For `CCOc1ccccc1/N=N/C1C(=O)N(C(=O)CC(=O)Nc2ccccc2C)N=C1C` (stereo unspecified), the GI50 in the experiment on BT-549 was 65.5 µM (inactive); in the experiment with SN12C, > 100 µM (inactive); with DU-145, 79.3 µM (inactive); with OVCAR-4 it was > 100 µM (inactive); in the experiment on PC-3, > 100 µM (inactive); with NCI/ADR-RES it was 54.6 µM (inactive). Further, the GI50 in the experiment with RXF 393 is 25.4 µM (inactive); in the experiment with MCF7 it was > 100 µM (inactive); in the experiment on TK-10, 52.4 µM (inactive); in the experiment with SK-OV-3, 19.7 µM (inactive); in the experiment on MDA-N it was > 100 µM (inactive); with UACC-62 it was 21.3 µM (inactive). For the same compound, the GI50 with OVCAR-8 is 39 µM (inactive); in the experiment with CCRF-CEM, > 100 µM (inactive); with SK-MEL-5, > 100 µM (inactive); in the experiment with NCI-H226 it was > 100 µM (inactive); in the experiment on T47D it was 51.9 µM (inactive); in the experiment with SF-539, 56 µM (inactive). For the same compound, the GI50 in the experiment on CAKI-1 was > 100 µM (inactive).
